Legend:
Test in all cases: Cytokine response, multiplex xMAP
Type in all cases: cell-based, human
Settings in all cases: 2 µM peptide, 24 h
[1] = test system: Monocytes
Method: (§1) The acute monocytic leukemia THP-1 cell line (ATCC TIB-202) was cultured in the complete RPMI 1640 medium (Invitrogen) containing 10% FBS, 1× antibiotic-antimycotic solution (Invitrogen), and 0.05 mM β-mercaptoethanol, in the CO2-incubator (5% CO2, 37 °C). THP-1 cells were differentiated into proinflammatory macrophages (MΦ1) according to the previously reported protocol. Primary peripheral blood mononuclear cells (PBMC) collected from a healthy donor were purchased from ATCC (PCS-800-011), thawed, and seeded into a 96-well plate one day prior to the experiment at a density of 2 × 10^5 cells/well. Two different cell subpopulations (monocytes and T-/B-/NK-lymphocytes) were isolated from PBMC based on their adherence ability. Macrophages MΦ1 were washed out and seeded into 96-well plates at a density of 10^5 cells/well one day prior to the experiment. The next day, medium in each well was replaced by a fresh complete RPMI 1640 medium with or without 2 μM of a tested peptide (rumicidin-1 or LL-37). Cell cultures were kept in a CO2-incubator (5% CO2, 37 °C) for 24 h. Culture supernatants were collected 24 h later and stored at −70 °C degrees less than one week prior to the assessment of analytes. 26 analytes were measured at a protein level by multiplex xMAP technology using the MILLIPLEX MAP Human Cytokine/Chemokine Magnetic Bead Immunology Panel kit (HCYTOMAG-60K-27, Merck): eotaxin-1/CCL11, TGFα, GM-CSF, IFNα2, IFNγ, IL-10, IL-12p40, IL-12p70, IL-15, sCD40L, IL-17A, IL-1RA, IL-1α, IL-9, IL-1β, IL-2, IL-3, IL-4, IL-5, IL-6, IL-7, IL-8/CXCL8, IP-10/CXCL10, RANTES/CCL5, TNFα, TNFβ. Multiplex-based assay read-out was performed using the MAGPIX system (Merck) with the xPONENT 4.2 software (Merck) in accordance with the manufacturer’s instruction with overnight incubation of the samples with primary antibodies. The final analysis was carried out with the MILLIPLEX Analyst v5.1 software (Merck). Measurements were performed twice for each sample. The release of the analytes in control and experimental samples were compared by unpaired two-sample t-test using GraphPad Prism v.8.0.1. The p values ≤ 0.05 were considered significant.

[2] = test system: macrophages MΦ1 (THP-1 derived)
Method: as §1

[3] = test system: PBMC
Method: as §1

[4] = test system: T-/B-/NK-lymphocytes
Method: as §1

Question: What does the source list for `CC[C@H](C)[C@H](NC(=O)[C@H](CCCCN)NC(=O)[C@H](CCC(=O)O)NC(=O)[C@H](CCCCN)NC(=O)[C@H](CO)NC(=O)[C@H](CCCCN)NC(=O)[C@H](CCCNC(=N)N)NC(=O)[C@H](Cc1ccccc1)NC(=O)[C@H](Cc1ccccc1)NC(=O)[C@H](CC(=O)O)NC(=O)CNC(=O)[C@H](CC(C)C)NC(=O)[C@@H](N)CC(C)C)C(=O)NCC(=O)N[C@@H](CCCCN)C(=O)N[C@@H](CCC(=O)O)C(=O)N[C@@H](Cc1ccccc1)C(=O)N[C@@H](CCCCN)C(=O)N[C@@H](CCCNC(=N)N)C(=O)N[C@H](C(=O)N[C@H](C(=O)N[C@@H](CCC(N)=O)C(=O)N[C@@H](CCCNC(=N)N)C(=O)N[C@H](C(=O)N[C@@H](CCCCN)C(=O)N[C@@H](CC(=O)O)C(=O)N[C@@H](Cc1ccccc1)C(=O)N[C@@H](CC(C)C)C(=O)N[C@@H](CCCNC(=N)N)C(=O)N[C@@H](CC(N)=O)C(=O)N[C@@H](CC(C)C)C(=O)N[C@H](C(=O)N1CCC[C@H]1C(=O)N[C@@H](CCCNC(=N)N)C(=O)N[C@H](C(=O)N[C@@H](CCC(=O)O)C(=O)N[C@@H](CO)C(=O)O)[C@@H](C)O)C(C)C)[C@@H](C)CC)C(C)C)[C@@H](C)CC` [LL-37]?
Answer: GM-CSF [1]: 3,08 pg/ml; IFNa2 [1]: 34,74 pg/ml; IFNg [1]: 38,2 pg/ml; IL-1RA [1]: 168,96 pg/ml; IL-1a [1]: < 1.13 pg/mL; IL-1b [1]: < 2.88 pg/mL; IL-2 [1]: < 2.73 pg/mL; IL-3 [1]: 3,38 pg/ml; IL-5 [1]: < 2.74 pg/mL; IL-6 [1]: < 2.42 pg/mL; IL-7 [1]: 8,54 pg/ml; IL-8 [1]: 755,68 pg/ml; IL-9 [1]: < 3.08 pg/mL; IL-10 [1]: 4,1 pg/ml; IL-12p40 [1]: 17,59 pg/ml; IL-12p70 [1]: 5,7 pg/ml; IL-15 [1]: 4,8 pg/ml; IP-10 [1]: 897,33 pg/ml; RANTES [1]: 312,51 pg/ml; TGF-a [1]: < 2.64 pg/mL; TNFa [1]: 6,47 pg/ml; TNFb [1]: < 2.85 pg/mL; sCD40L [1]: 20,8 pg/ml; GM-CSF [2]: 1,32 pg/ml; IFNa2 [2]: 4,35 pg/ml; IFNg [2]: < 1.31 pg/mL; IL-1RA [2]: 20,52 pg/ml; IL-1a [2]: < 1.13 pg/mL; IL-1b [2]: 10,63 pg/ml; IL-2 [2]: < 2.73 pg/mL; IL-3 [2]: < 3.02 pg/mL; IL-4 [2]: 38,61 pg/ml; IL-5 [2]: < 2.74 pg/mL; IL-6 [2]: < 2.42 pg/mL; IL-7 [2]: < 2.06 pg/mL; IL-8 [2]: 1188 pg/mL; IL-9 [2]: < 3.08 pg/mL; IL-10 [2]: 6,13 pg/ml; IL-12p40 [2]: < 3.69 pg/mL; IL-12p70 [2]: 0,58 pg/ml; IL-15 [2]: 2,42 pg/ml; IL-17A [2]: < 0.94 pg/mL; IP-10 [2]: 282,01 pg/ml; RANTES [2]: 715,62 pg/ml; TGF-a [2]: < 2.64 pg/mL; TNFa [2]: 9,49 pg/ml; TNFb [2]: < 2.85 pg/mL; sCD40L [2]: 3,22 pg/ml; GM-CSF [3]: 0,66 pg/ml; IFNa2 [3]: 3,72 pg/ml; IFNg [3]: < 1.31 pg/mL; IL-1RA [3]: 62,83 pg/ml; IL-1a [3]: < 1.13 pg/mL; IL-1b [3]: < 2.88 pg/mL; IL-2 [3]: < 2.73 pg/mL; IL-3 [3]: < 3.02 pg/mL; IL-4 [3]: 38,61 pg/ml; IL-5 [3]: < 2.74 pg/mL; IL-6 [3]: < 2.42 pg/mL; IL-7 [3]: < 2.06 pg/mL; IL-8 [3]: 1591 pg/mL; IL-9 [3]: < 3.08 pg/mL; IL-10 [3]: < 1.47 pg/mL; IL-12p40 [3]: < 3.69 pg/mL; IL-12p70 [3]: 0,29 pg/ml; IL-15 [3]: < 2.08 pg/mL; IL-17A [3]: < 0.94 pg/mL; IP-10 [3]: 2236 pg/mL; RANTES [3]: 262,49 pg/ml; TGF-a [3]: < 2.64 pg/mL; TNFa [3]: 15,91 pg/ml; TNFb [3]: < 2.85 pg/mL; sCD40L [3]: 2,84 pg/ml; Eotaxin ([3]; supernatant): 3,21 pg/ml; GM-CSF [4]: 0,66 pg/ml; IFNa2 [4]: 7,02 pg/ml; IFNg [4]: 1,93 pg/ml; IL-1RA [4]: 6,49 pg/ml; IL-1a [4]: < 1.13 pg/mL; IL-1b [4]: < 2.88 pg/mL; IL-2 [4]: < 2.73 pg/mL; IL-3 [4]: < 3.02 pg/mL; IL-4 [4]: 51,58 pg/ml; IL-5 [4]: < 2.74 pg/mL; IL-6 [4]: < 2.42 pg/mL; IL-7 [4]: < 2.06 pg/mL; IL-8 [4]: 411,17 pg/ml; IL-9 [4]: < 3.08 pg/mL; IL-10 [4]: < 1.47 pg/mL; IL-12p40 [4]: < 3.69 pg/mL; IL-12p70 [4]: 1,03 pg/ml; IL-15 [4]: < 2.08 pg/mL; IL-17A [4]: < 0.94 pg/mL; IP-10 [4]: 120,56 pg/ml; RANTES [4]: 889,61 pg/ml; TGF-a [4]: < 2.64 pg/mL; TNFa [4]: 5,23 pg/ml; TNFb [4]: < 2.85 pg/mL; sCD40L [4]: 3,22 pg/ml
